In patent EP4768499A1, “MACROCYCLIC PEPTIDE COMPOUND HAVING CELL MEMBRANE PERMEABILITY AND METABOLIC STABILITY, AND LIBRARY CONTAINING SAME” (Chugai Seiyaku Kabushiki Kaisha, priority 2023, dated 2025):
Like-named read-outs stand apart in the source and are kept apart here. Starred links: 1 amine or outer side, 2 acyl side, 3 side chain; linkers in the order of their positions; H or OH if unused. Positions of bridges follow the written chain, without caps; N, C: chain ends. Non-standard residues stand in square brackets, D forms with d. Residues, ends and D or L forms follow the SMILES beside them. *: point of attachment. NMeF = CN[C@@H](Cc1ccccc1)C(=O)O; NMeGABA = CN(CCCC(=O)[*:2])[*:1]; NMeI = CC[C@H](C)[C@H](NC)C(=O)O; NMeT = CN[C@H](C(=O)O)[C@@H](C)O; hPhe = N[C@@H](CCc1ccccc1)C(=O)O; NMeβAla = CN(CCC(=O)[*:2])[*:1]; NMeD = CN[C@@H](CC(=O)O)C(=O)O; NMeL = CN[C@@H](CC(C)C)C(=O)O; dNMeV = CN[C@@H](C(=O)O)C(C)C; NMeV = CN[C@H](C(=O)O)C(C)C; NMeAbu = CC[C@H](NC)C(=O)O; NMeA = CN[C@@H](C)C(=O)O; Piperidide = C1CCN(*)CC1; Abu = CC[C@H](N)C(=O)O; NBuGly = CCCCNCC(=O)O; βAla = NCCC(=O)O; Sar = CNCC(=O)O; tBu = CC(C)(C)*

What was measured:
[1] = Metabolic stability test: liver microsomal stability assay; type: in vitro ADME, mouse; conditions: for microsomal CLint at 1 µM: male, pH 7.4, presence of NADPH, read-out: Mouse Hepatic Microsome CLh,int NADPH(+)
Caco-2 cells = assay: Membrane permeability test using Caco-2 cells with preincubation; type: in vitro ADME
[2] = as above; type: in vitro ADME; conditions: Caco-2
[3] = mouse liver microsomes 0.5 mg protein/mL, compound 1 µM
[4] = mouse liver microsomes 0.5 mg protein/mL, compound 1 µM, absence of NADPH
[5] = Caco-2 cells, preincubation 20 to 24 hours, apical FaSSIF/HBSS 1% DMSO pH 6.0, basal HBSS 4% BSA pH 7.4, basal sample at 180 minutes
[6] = preincubation 20 to 24 hours, Apical FaSSIF/HBSS pH 6.0, Basal HBSS 4% BSA pH 7.4, 180 minutes, read-out: Caco2 Papp

Row | SMILES | microsomal CLint at 1 µM [1, 3] | Mouse Hepatic Microsome CLh,int NADPH(-) [1, 4] | Caco2 Papp (10^-6 cm/sec) (Caco-2 cells; [5]) | Papp A→B [2, 6] | Mouse Hepatic Microsome CLh,int NADPH(-) [1] | Caco2 Papp (10^-6 cm/sec) (Caco-2 cells; Caco-2) | Papp A→B [2]
1 | CC[C@H](C)[C@@H]1NC(=O)CN(C)C(=O)C[C@@H](C(=O)N2CCCCC2)N(C)C(=O)[C@H](C(C)C)NC(=O)[C@H](Cc2ccccc2)N(C)C(=O)[C@H](CC(C)C)N(C)C(=O)[C@H]([C@@H](C)O)NC(=O)[C@H](CC(C)C)N(C)C(=O)[C@H](CC(C)C)NC(=O)[C@H](C(C)C)N(C)C(=O)[C@H](C)N(C)C(=O)[C@H](CC(C)C)N(C)C(=O)[C@H](CCc2ccccc2)NC(=O)[C@H](CC(C)C)N(C)C1=O [pd092] ([Sar]I[NMeL][hPhe][NMeL][NMeA][NMeV]L[NMeL]T[NMeL][NMeF]V[NMeD]-Piperidide; lactam N-14) | 22 µL/min/mg | 26.3 µL/min/mg Protein | 0.09 10^-6 cm/sec | 0.09 ×10⁻⁶ cm/s | – | – | –
2 | CC[C@H](C)[C@@H]1NC(=O)[C@H](Cc2ccccc2)N(C)C(=O)[C@H]([C@@H](C)O)N(C)C(=O)[C@H]([C@@H](C)CC)N(C)C(=O)[C@H](CC(C)C)NC(=O)CN(C)C(=O)[C@H](CC)N(C)C(=O)[C@H](Cc2ccccc2)N(C)C(=O)[C@H](COC(C)(C)C)NC(=O)[C@H](CC(C)C)N(C)C(=O)[C@H](CC(C)C)NC(=O)[C@H](C)N(C)C(=O)C[C@@H](C(=O)N2CCCCC2)N(C)C(=O)[C@H](CC(C)C)N(C)C1=O [pd095] ([NMeA]L[NMeL]S(tBu)[NMeF][NMeAbu][Sar]L[NMeI][NMeT][NMeF]I[NMeL][NMeD]-Piperidide; lactam N-14) | 25.6 µL/min/mg | 29.2 µL/min/mg Protein | <0.10 10^-6 cm/sec | < 0.1 ×10⁻⁶ cm/s | – | – | –
3 | CC[C@H](C)[C@H]1C(=O)N(C)[C@@H](CC(C)C)C(=O)N[C@@H](CCc2ccccc2)C(=O)N(C)[C@@H](CC(C)C)C(=O)N(C)CCC(=O)N(C)[C@@H](C(C)C)C(=O)N[C@@H](CC(C)C)C(=O)N(C)[C@@H](CC(C)C)C(=O)N[C@@H]([C@@H](C)O)C(=O)N(C)CCC(=O)N(C)[C@@H](Cc2ccccc2)C(=O)N[C@@H](C(C)C)C(=O)N(C)[C@H](C(=O)N2CCCCC2)CC(=O)N(C)CC(=O)N1C [pd096] ([Sar][NMeI][NMeL][hPhe][NMeL][NMeβAla][NMeV]L[NMeL]T[NMeβAla][NMeF]V[NMeD]-Piperidide; lactam N-14) | – | – | – | – | 18.2 µL/min/mg Protein | 0.51 10^-6 cm/sec | 0.51 ×10⁻⁶ cm/s
4 | CC(C)C[C@@H]1NC(=O)[C@@H]2CCCN2C(=O)[C@H](C(C)C)N(C)C(=O)[C@H](C)NC(=O)[C@H](CC(C)C)N(C)C(=O)[C@@H](C(C)C)NC(=O)C[C@@H](C(=O)N2CCCCC2)NC(=O)[C@H](C(C)C)N(C)C(=O)[C@H](Cc2ccccc2)N(C)C(=O)[C@H](CC(C)C)NC(=O)[C@H](COC(C)(C)C)NC(=O)[C@H](CC(C)C)N(C)C(=O)CN(C)C1=O [pd097] ([dV][NMeL]A[NMeV]PL[Sar][NMeL]S(tBu)L[NMeF][NMeV]D-Piperidide; lactam N-13) | 20.4 µL/min/mg | 18.8 µL/min/mg Protein | 0.54 10^-6 cm/sec | 0.54 ×10⁻⁶ cm/s | – | – | –
5 | CC[C@H](C)[C@@H]1NC(=O)[C@H](C)NC(=O)[C@H](CC(C)C)N(C)C(=O)[C@H](COC(C)(C)C)NC(=O)[C@H](CC(C)C)N(C)C(=O)[C@@H]2CCCN2C(=O)[C@H](Cc2ccccc2)NC(=O)[C@H]([C@@H](C)CC)N(C)C(=O)[C@H](CC(C)C)N(C)C(=O)CCCN(C)C(=O)C[C@@H](C(=O)N2CCCCC2)NC(=O)[C@H](Cc2ccccc2)N(C)C(=O)[C@H](CC)N(C)C1=O [pd098] ([NMeGABA][NMeL][NMeI]FP[NMeL]S(tBu)[NMeL]AI[NMeAbu][NMeF]D-Piperidide; lactam N-13) | 44.5 µL/min/mg | 37.8 µL/min/mg Protein | 0.57 10^-6 cm/sec | 0.57 ×10⁻⁶ cm/s | – | – | –
6 | CCCCN1CC(=O)N(C)[C@@H](CC)C(=O)N[C@H](C(=O)N2CCCCC2)CC(=O)N(C)[C@@H](C)C(=O)N[C@@H]([C@@H](C)CC)C(=O)N(C)[C@@H](Cc2ccccc2)C(=O)N(C)[C@@H](CC(C)C)C(=O)N[C@@H](C(C)C)C(=O)N(C)CC(=O)N[C@@H](CC(C)C)C(=O)N(C)[C@@H](Cc2ccccc2)C(=O)N(C)[C@@H](C)C(=O)N[C@@H](CC(C)C)C1=O [pd099] ([NMeA]I[NMeF][NMeL]V[Sar]L[NMeF][NMeA]L[NBuGly][NMeAbu]D-Piperidide; lactam N-13) | 30.3 µL/min/mg | 27.8 µL/min/mg Protein | 0.41 10^-6 cm/sec | 0.41 ×10⁻⁶ cm/s | – | – | –

More lines, main results first:

Row | microsomal CLint at 1 µM [1, 3] | Mouse Hepatic Microsome CLh,int NADPH(-) [1, 4] | Caco2 Papp (10^-6 cm/sec) (Caco-2 cells; [5]) | Papp A→B [2, 6] | SMILES | Mouse Hepatic Microsome CLh,int NADPH(-) [1] | Caco2 Papp (10^-6 cm/sec) (Caco-2 cells; Caco-2) | Papp A→B [2]
7 | 29 µL/min/mg | 29.8 µL/min/mg Protein | <0.11 10^-6 cm/sec | < 0.11 ×10⁻⁶ cm/s | CC[C@@H]1NC(=O)[C@H](Cc2ccccc2)N(C)C(=O)[C@H](COC(C)(C)C)NC(=O)[C@H](CC(C)C)N(C)C(=O)[C@H](C)N(C)C(=O)[C@H]([C@@H](C)O)NC(=O)[C@H](CC(C)C)N(C)C(=O)[C@H](C(C)C)N(C)C(=O)[C@H](CCc2ccccc2)NC(=O)[C@H](CC(C)C)N(C)C(=O)[C@@H](C(C)C)N(C)C(=O)C[C@@H](C(=O)N2CCCCC2)N(C)C(=O)[C@H](CC(C)C)NC(=O)[C@H](C(C)C)N(C)C1=O [pd089] ([dNMeV][NMeL][hPhe][NMeV][NMeL]T[NMeA][NMeL]S(tBu)[NMeF][Abu][NMeV]L[NMeD]-Piperidide; lactam N-14) | – | – | –
8 | 45 µL/min/mg | 23.9 µL/min/mg Protein | <0.12 10^-6 cm/sec | < 0.12 ×10⁻⁶ cm/s | CC[C@@H]1NC(=O)[C@H](CC(C)C)N(C)C(=O)[C@H]([C@@H](C)O)NC(=O)[C@H](C(C)C)N(C)C(=O)[C@H](C)NC(=O)[C@H](Cc2ccccc2)N(C)C(=O)[C@@H](C(C)C)NC(=O)C[C@@H](C(=O)N2CCCCC2)N(C)C(=O)CN(C)C(=O)[C@H](Cc2ccccc2)N(C)C(=O)[C@H](C)N(C)C(=O)[C@H](COC(C)(C)C)NC(=O)[C@H](CC(C)C)N(C)C(=O)CN(C)C1=O [pd090] ([dV][NMeF]A[NMeV]T[NMeL][Abu][Sar][NMeL]S(tBu)[NMeA][NMeF][Sar][NMeD]-Piperidide; lactam N-14) | – | – | –
9 | 39.4 µL/min/mg | 36.1 µL/min/mg Protein | 0.11 10^-6 cm/sec | 0.11 ×10⁻⁶ cm/s | CC[C@@H]1NC(=O)[C@H](Cc2ccccc2)N(C)C(=O)[C@H](COC(C)(C)C)NC(=O)[C@H](CC(C)C)N(C)C(=O)[C@H](CC(C)C)NC(=O)[C@H](C)N(C)C(=O)C[C@@H](C(=O)N2CCCCC2)N(C)C(=O)[C@H](CC(C)C)N(C)C(=O)[C@H]([C@@H](C)CC)NC(=O)[C@H](Cc2ccccc2)N(C)C(=O)[C@H]([C@@H](C)O)N(C)C(=O)[C@H](CC)N(C)C(=O)[C@H](CC(C)C)NC(=O)CN(C)C1=O [pd091] ([NMeA]L[NMeL]S(tBu)[NMeF][Abu][Sar]L[NMeAbu][NMeT][NMeF]I[NMeL][NMeD]-Piperidide; lactam N-14) | – | – | –
10 | 26.8 µL/min/mg | 20.4 µL/min/mg Protein | <0.14 10^-6 cm/sec | < 0.14 ×10⁻⁶ cm/s | CC[C@H]1C(=O)N(C)[C@@H](C(C)C)C(=O)N[C@@H](CC(C)C)C(=O)N(C)[C@H](C(=O)N2CCCCC2)CC(=O)N(C)[C@H](C(C)C)C(=O)N(C)[C@@H](CC(C)C)C(=O)N[C@@H](CCc2ccccc2)C(=O)N(C)[C@@H](C(C)C)C(=O)N(C)[C@@H](CC(C)C)C(=O)N[C@@H]([C@@H](C)O)C(=O)N(C)[C@@H](C)C(=O)N(C)[C@@H](CC(C)C)C(=O)N[C@@H](COC(C)(C)C)C(=O)N(C)[C@@H](Cc2ccccc2)C(=O)N1C [pd093] ([dNMeV][NMeL][hPhe][NMeV][NMeL]T[NMeA][NMeL]S(tBu)[NMeF][NMeAbu][NMeV]L[NMeD]-Piperidide; lactam N-14) | – | – | –
11 | 22.5 µL/min/mg | 16.7 µL/min/mg Protein | <0.13 10^-6 cm/sec | < 0.13 ×10⁻⁶ cm/s | CC[C@H]1C(=O)N(C)CC(=O)N(C)[C@@H](CC(C)C)C(=O)N[C@@H](COC(C)(C)C)C(=O)N(C)[C@@H](C)C(=O)N(C)[C@@H](Cc2ccccc2)C(=O)N(C)CC(=O)N(C)[C@H](C(=O)N2CCCCC2)CC(=O)N[C@H](C(C)C)C(=O)N(C)[C@@H](Cc2ccccc2)C(=O)NCCC(=O)N(C)[C@@H](C(C)C)C(=O)N[C@@H]([C@@H](C)O)C(=O)N(C)[C@@H](CC(C)C)C(=O)N1C [pd094] ([dV][NMeF][βAla][NMeV]T[NMeL][NMeAbu][Sar][NMeL]S(tBu)[NMeA][NMeF][Sar][NMeD]-Piperidide; lactam N-14) | – | – | –
12 | 39.6 µL/min/mg | 28.4 µL/min/mg Protein | <0.12 10^-6 cm/sec | < 0.12 ×10⁻⁶ cm/s | CCCCN1CC(=O)N[C@@H](COC(C)(C)C)C(=O)N(C)[C@@H](Cc2ccccc2)C(=O)N[C@@H](CC(C)C)C(=O)N(C)[C@@H](C(C)C)C(=O)N[C@H](C(=O)N2CCCCC2)CC(=O)N[C@H](C(C)C)C(=O)N(C)[C@@H](Cc2ccccc2)C(=O)N[C@@H](CC(C)C)C(=O)N(C)[C@@H](C(C)C)C(=O)N(C)[C@@H](CC(C)C)C(=O)N[C@@H]([C@@H](C)O)C(=O)N(C)[C@@H](CC(C)C)C1=O [pd100] ([dV][NMeF]L[NMeV][NMeL]T[NMeL][NBuGly]S(tBu)[NMeF]L[NMeV]D-Piperidide; lactam N-13) | – | – | –
